Measured values: patent US20060172334A1, “Method for detecting adverse reaction susceptibility to an HMG CoA reductase inhibitor” (Marshfield Clinic, priority 2005, published 2006)
Where two headings read alike, the source gives them in different places.

Details: cases only
[1] = CYP3A4 heterozygous (CYP3A4*1A/*1B), less gemfibrozil
[2] = CYP3A4 heterozygous (CYP3A4*1A/*1B), less gemfibrozil AND less niacin
[3] = CYP3A4 heterozygous (CYP3A4*1A/*1B), no medications removed
[4] = CYP3A4 homozygous (CYP3A4*1A/*1A), less gemfibrozil
[5] = CYP3A4 homozygous (CYP3A4*1A/*1A), less gemfibrozil AND less niacin
[6] = CYP3A4 homozygous (CYP3A4*1A/*1A), no medications removed
[7] = CYP3A5 heterozygous (CYP3A5*1/*3), less gemfibrozil
[8] = CYP3A5 heterozygous (CYP3A5*1/*3), less gemfibrozil AND less niacin
[9] = CYP3A5 heterozygous (CYP3A5*1/*3), no medications removed
[10] = CYP3A5 homozygous (CYP3A5*3/*3), less gemfibrozil
[11] = CYP3A5 homozygous (CYP3A5*3/*3), less gemfibrozil AND less niacin
[12] = CYP3A5 homozygous (CYP3A5*3/*3), no medications removed

Description: Study subjects were enrolled at a large, horizontally-integrated, multispecialty group practice located in central Wisconsin. […] Case assignment (i.e., status as a case versus control) was determined by criteria outlined below.
One hundred thirty-seven adult subjects (68 cases and 69 controls) agreed to participate in this study. Due to potentially confounding pharmacokinetic interactions, patients were excluded from the study if they had previously been diagnosed with kidney disease or liver disease. Patients were also excluded if they had pre-existing muscle disease. Patients were not excluded if they were taking concomitant medications.
To determine whether CYP3A4*1B or CYP3A5*3 were associated with the severity of muscle damage, serum CK levels were ranked and compared between genotypes in the case cohort only.

- serum CK level, Mean [1]: 268.8
- serum CK level, Median [1]: 246.0
- serum CK level, Mean [2]: 246.6
- serum CK level, Median [2]: 239.0
- serum CK level, Mean [3]: 268.8
- serum CK level, Median [3]: 246.0
- serum CK level, Mean [4]: 434.6
- serum CK level, Median [4]: 316.5
- serum CK level, Mean [5]: 420.4
- serum CK level, Median [5]: 316.5
- serum CK level, Mean [6]: 441.1
- serum CK level, Median [6]: 321.0
- serum CK level, Mean [7]: 261.7
- serum CK level, Median [7]: 239.0
- serum CK level, Mean [8]: 249.9
- serum CK level, Median [8]: 237.5
- serum CK level, Mean [9]: 344.0
- serum CK level, Median [9]: 246.0
- serum CK level, Mean [10]: 441.9
- serum CK level, Median [10]: 321.0
- serum CK level, Mean [11]: 428.0
- serum CK level, Median [11]: 321.0
- serum CK level, Mean [12]: 429.2
- serum CK level, Median [12]: 317.5
Compound: CC(C)c1c(C(=O)Nc2ccccc2)c(-c2ccccc2)c(-c2ccc(F)cc2)n1CC[C@@H](O)C[C@@H](O)CC(=O)O [atorvastatin]
